Here are results for 9 molecules from US11702404B2, “GLP-1R modulating compounds” (priority 2019, dated 2023).

The nature of data set [1]: Microsomal stability, human liver microsomes (predicted hepatic clearance). As to conditions: predicted from in vitro microsomal stability data.
The target in data set [2] is GLP-1R (Homo sapiens, UniProt P43220). The data set is described as follows: GLP-1R activation: cAMP increase in CHO cells stably expressing GLP-1R. It is filed as cell-based. As to conditions: cAMP increase, CHO cells stably expressing GLP-1R, 10 point dose response, 30 minutes incubation; read-out: EC50.
GLP-1R, sequence (P43220 24-463): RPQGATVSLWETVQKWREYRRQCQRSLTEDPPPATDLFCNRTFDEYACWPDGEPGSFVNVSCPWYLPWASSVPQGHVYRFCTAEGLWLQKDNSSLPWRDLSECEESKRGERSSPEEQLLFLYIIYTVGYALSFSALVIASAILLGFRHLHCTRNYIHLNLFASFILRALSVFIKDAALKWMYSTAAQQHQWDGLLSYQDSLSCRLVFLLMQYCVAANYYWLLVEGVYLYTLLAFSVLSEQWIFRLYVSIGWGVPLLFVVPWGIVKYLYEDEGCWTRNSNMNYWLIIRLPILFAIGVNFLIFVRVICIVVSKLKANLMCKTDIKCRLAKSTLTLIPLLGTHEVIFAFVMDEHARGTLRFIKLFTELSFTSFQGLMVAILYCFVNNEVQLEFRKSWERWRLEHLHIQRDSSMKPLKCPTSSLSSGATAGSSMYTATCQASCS

Turning to `COCCn1c(Cc2ccc(-c3cccc(OCc4ccc(C#N)cc4F)n3)cc2OC(F)(F)F)nc2ccc(C(=O)O)cc21` [Example 40, 2-(4-(6-((4-cyano-2-fluorobenzyl)oxy)pyridin-2-yl)-2-(trifluoromethoxy)benzyl)-1-(2-methoxyethyl)-1H-benzo[d]imidazole-6-carboxylic acid], the “Predicted Hepatic Clearance (Pred. Cl.)” value in data set [1] is under 1.83 mL/min/kg. Moreover, the EC50 (as a rule, the concentration giving half of the maximal effect) in data set [2] is 456 nM.
In the same order, the values of `COCCn1c(C2CCOc3cc(-c4cccc(OCc5ccc(C#N)cc5F)n4)ccc32)nc2ccc(C(=O)O)cc21` (stereo not drawn) [Example 41, 2-(7-(6-((4-cyano-2-fluorobenzyl)oxy)pyridin-2-yl)chroman-4-yl)-1-(2-methoxyethyl)-1H-benzo[d]imidazole-carboxylic acid] are 6 mL/min/kg and 1460 nM.
Turning to `COCCn1c(Cc2ccc(-c3cccc(OCc4ccc(C#N)cc4F)n3)cc2OC(F)F)nc2ccc(C(=O)O)cc21` [Example 42, 2-(4-(6-((4-cyano-2-fluorobenzyl)oxy)pyridin-2-yl)-2-(difluoromethoxy)benzyl)-1-(2-methoxyethyl)-1H-benzo[d]imidazole-6-carboxylic acid], the “Predicted Hepatic Clearance (Pred. Cl.)” value in data set [1] is 3.83 mL/min/kg. For the same molecule, the EC50 in data set [2] was found to be 38.2 nM.
On to `COCCn1c(Cc2ccc(-c3cccc(OCc4ccc(C#N)cc4F)n3)nc2)nc2ccc(C(=O)O)cc21` [Example 43, 2-{[6-[6-[(4-cyano-2-fluoro-phenyl)methoxy]-2-pyridyl]-3-pyridyl]methyl}-3-(2-methoxyethyl)benzimidazole-5-carboxylic acid], for which the “Predicted Hepatic Clearance (Pred. Cl.)” value in data set [1] is 5.83 mL/min/kg. In addition, the EC50 in data set [2] was 163 nM.
In the same order, the values of `COCCn1c(Cc2cnc(-c3cccc(OCc4ccc(C#N)cc4F)n3)nc2)nc2ccc(C(=O)O)cc21` [Example 44, 2-((2-(6-((4-cyano-2-fluorobenzyl)oxy)pyridin-2-yl)pyrimidin-5-yl)methyl)-1-(2-methoxyethyl)-1H-benzo[d]imidazole-6-carboxylic acid] are 3 mL/min/kg and 212 nM.
In the same order, the values of `COCCn1c(Cc2ccc(-c3cccc(OCc4ccc(C#N)cc4F)n3)c(F)c2F)nc2ccc(C(=O)O)cc21` [Example 45, 2-(4-(6-((4-cyano-2-fluorobenzyl)oxy)pyridin-2-yl)-2,3-difluorobenzyl)-1-(2-methoxyethyl)-1H-benzo[d]imidazole-6-carboxylic acid] are 3.83 mL/min/kg and 36 nM.
On to `CC1(Cn2c(Cc3ccc(-c4cccc(OCc5ccc(C#N)cc5F)n4)cc3F)nc3ccc(C(=O)NS(=O)(=O)C4CC4)cc32)CC1` [Example 50, 2-(4-(6-((4-Cyano-2-fluorobenzyl)oxy)pyridin-2-yl)-2-fluorobenzyl)-N-(cyclopropylsulfonyl)-1-((1-methylcyclopropyl)methyl)-1H-benzo[d]imidazole-6-carboxamide], for which the “Predicted Hepatic Clearance (Pred. Cl.)” value in data set [1] was under 1.83 mL/min/kg. Besides, the EC50 in data set [2] was found to be 19 nM.
The matching figures for `CC(C)(CF)Cn1c(Cc2ccc(-c3cccc(OCc4ccc(C#N)cc4F)n3)cc2F)nc2ccc(C(=O)NS(=O)(=O)C3CC3)cc21` [Example 51, 2-(4-(6-((4-cyano-2-fluorobenzyl)oxy)pyridin-2-yl)-2-fluorobenzyl)-N-(cyclopropylsulfonyl)-1-(3-fluoro-2,2-dimethylpropyl)-1H-benzo[d]imidazole-6-carboxamide]: under 1.83 mL/min/kg and 63 nM.
The matching figures for `CC(C)(Cn1c(Cc2ccc(-c3cccc(OCc4ccc(C#N)cc4F)n3)cc2F)nc2ccc(C(=O)NS(=O)(=O)C3CC3)cc21)C(F)F` [Example 52, 2-(4-(6-((4-cyano-2-fluorobenzyl)oxy)pyridin-2-yl)-2-fluorobenzyl)-N-(cyclopropylsulfonyl)-1-(3,3-difluoro-2,2-dimethylpropyl)-1H-benzo[d]imidazole-6-carboxamide]: under 1.83 mL/min/kg and 56 nM.
